The conditions of experiment [1]: read-out: KD with PG; cited from earlier work.
Another experiment has as its system S. simulans 4. The experiment in a line: Antibacterial test, broth microdilution. The experiment is classed as cell-based. The conditions noted are these: Staphylococcus simulans.
Experiment [2] deals with MRSA T144. The experiment in a line: Antibacterial test, broth microdilution. The conditions noted are these: Staphylococcus aureus. Format: cell-based, methicillin-resistant Staphylococcus aureus. In general terms: In broth dilution the organism is exposed to a series of concentrations in liquid medium.
Experiment [3] deals with MRSA T144. The experiment is described as follows: Galleria mellonella infection model. The conditions noted are these: MRSA T144 5.0 × 10^6 CFUs; 10 mg/kg at 1 h post-infection; n = 7. The experiment is classed as in vivo.
The test system of another experiment is MRSA 1530 (cfr). The experiment is described as follows: Antibacterial test, broth microdilution. Format: cell-based, methicillin-resistant Staphylococcus aureus. The conditions noted are these: Staphylococcus aureus.
In a further experiment the test system is S. aureus ATCC 29213. The experiment is described as follows: Antibacterial test, broth microdilution. The conditions noted are these: Fig. S5. Format: cell-based, Staphylococcus aureus.

Consider three compounds from publication PMC12145052 (Acta Pharmaceutica Sinica. B, 2025).

≈ marks a conversion by molar mass, not a printed value. Where a SMILES comes first, the peptide text is derived from it. [ ]: non-standard residue; d: D form. Phe(ol) = N[C@H](CO)Cc1ccccc1; Aib = CC(C)(N)C(=O)O

daptomycin: the Kd (usually the equilibrium constant for the complex coming apart) in experiment [1] was 3.1 µM.
In the case of `CN[C@H](CC(C)C)C(=O)N[C@H]1C(=O)N[C@@H](CC(N)=O)C(=O)N[C@H]2C(=O)N[C@H]3C(=O)N[C@H](C(=O)N[C@H](C(=O)O)c4cc(O)cc(O)c4-c4cc3ccc4O)[C@H](O)c3ccc(c(Cl)c3)Oc3cc2cc(c3O[C@@H]2O[C@H](CO)[C@@H](O)[C@H](O)[C@H]2O[C@H]2C[C@](C)(N)[C@H](O)[C@H](C)O2)Oc2ccc(cc2Cl)[C@H]1O` [Vancomycin], the minimal inhibitory concentration (MIC) in the experiment on S. simulans 4, with MRSA T144 [2] and in the experiment on MRSA 1530 (cfr) was 1 µg/mL (≈ 0.69 µM) each time. Besides, the “Bacterial loads in G. mellonella larvae” value with MRSA T144 [3] was “decreased bacterial loads”.
In the case of `CC(=O)NC(C)(C)C(=O)N1CCC[C@H]1C(=O)NC(C)(C)C(=O)N[C@@H](C)C(=O)NC(C)(C)C(=O)N[C@@H](C)C(=O)N[C@@H](CCC(N)=O)C(=O)NC(C)(C)C(=O)N[C@H](C(=O)NC(C)(C)C(=O)NCC(=O)N[C@@H](CC(C)C)C(=O)NC(C)(C)C(=O)N1CCC[C@H]1C(=O)N[C@H](C(=O)NC(C)(C)C(=O)NC(C)(C)C(=O)N[C@@H](CCC(=O)O)C(=O)N[C@@H](CCC(N)=O)C(=O)N[C@H](CO)Cc1ccccc1)C(C)C)C(C)C` [alamethicin] (Ac-[Aib]P[Aib]A[Aib]AQ[Aib]V[Aib]GL[Aib]PV[Aib][Aib]EQ[Phe(ol)]; N-terminus assumed), the minimum inhibitory concentration (MIC) (commonly the lowest concentration found to suppress growth) in the experiment with S. aureus ATCC 29213 was 16 µg/mL (≈ 8.15 µM).
